The values below come from paper PMC7836013, “Characterization of Formononetin Sulfonation in SULT1A3 Overexpressing HKE293 Cells: Involvement of Multidrug Resistance-Associated Protein 4 in Excretion of Sulfate” (Frontiers in Pharmacology, 2021).

The target of series [1] is T1, MRP4 (Homo sapiens, UniProt O15439).
T1 construct: MRP4 was the only expressed MRPs family transporter in HEK-SULT1A3 cells; endogenous in cells; host or cells: HEK-SULT1A3 cells (HEK293 stably expressing SULT1A3)
T1 sequence (O15439 1-1325): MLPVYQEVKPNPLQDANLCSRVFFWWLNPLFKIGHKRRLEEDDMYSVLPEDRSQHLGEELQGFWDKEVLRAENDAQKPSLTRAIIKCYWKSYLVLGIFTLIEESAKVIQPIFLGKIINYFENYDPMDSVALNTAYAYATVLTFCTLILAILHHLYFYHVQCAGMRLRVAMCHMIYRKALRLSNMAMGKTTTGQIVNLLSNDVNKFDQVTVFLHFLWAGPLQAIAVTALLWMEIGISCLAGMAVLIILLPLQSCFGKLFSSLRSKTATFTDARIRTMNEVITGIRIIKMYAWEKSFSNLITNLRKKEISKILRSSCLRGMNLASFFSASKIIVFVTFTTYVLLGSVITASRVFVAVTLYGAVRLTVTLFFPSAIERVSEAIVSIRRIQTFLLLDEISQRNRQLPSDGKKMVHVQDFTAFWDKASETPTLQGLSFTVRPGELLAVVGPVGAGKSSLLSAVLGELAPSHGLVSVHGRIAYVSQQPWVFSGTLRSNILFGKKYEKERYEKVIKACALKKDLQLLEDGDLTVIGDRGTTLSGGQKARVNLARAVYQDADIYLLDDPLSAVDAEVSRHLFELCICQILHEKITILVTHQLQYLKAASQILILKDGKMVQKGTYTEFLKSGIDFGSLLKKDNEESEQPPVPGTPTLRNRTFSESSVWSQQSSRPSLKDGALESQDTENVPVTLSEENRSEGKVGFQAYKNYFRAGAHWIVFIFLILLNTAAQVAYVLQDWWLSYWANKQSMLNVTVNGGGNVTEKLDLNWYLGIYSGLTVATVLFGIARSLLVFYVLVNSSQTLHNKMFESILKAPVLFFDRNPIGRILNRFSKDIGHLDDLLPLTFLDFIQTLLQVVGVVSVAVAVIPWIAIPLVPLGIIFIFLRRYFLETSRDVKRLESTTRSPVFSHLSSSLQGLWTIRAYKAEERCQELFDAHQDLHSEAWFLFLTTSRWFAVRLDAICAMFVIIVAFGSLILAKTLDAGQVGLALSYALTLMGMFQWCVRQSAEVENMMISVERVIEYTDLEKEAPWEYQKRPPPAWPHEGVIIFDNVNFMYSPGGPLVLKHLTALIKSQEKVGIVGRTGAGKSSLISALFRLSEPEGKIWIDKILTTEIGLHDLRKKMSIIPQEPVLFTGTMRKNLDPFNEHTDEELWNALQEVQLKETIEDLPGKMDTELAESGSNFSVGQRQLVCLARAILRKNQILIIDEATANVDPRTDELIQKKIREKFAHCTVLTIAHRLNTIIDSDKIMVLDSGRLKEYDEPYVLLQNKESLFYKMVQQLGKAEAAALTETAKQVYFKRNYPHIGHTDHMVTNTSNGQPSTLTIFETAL
The series can be described thus: Effect of shRNA-mediated MRP4 knockdown on formononetin disposition in HEK-SULT1A3 cells. The conditions noted are these: shMRP4 vs scramble, formononetin 2.5 and 10 μM. The class given is cell-based. As for the experimental part: The sulfate excretion experiments were conducted using HEK-SULT1A3 cells model. In brief, HEK-SULT1A3 cells were washed with Hank's Balanced Salt Solution (HBSS) buffer (37°C, pH = 7.2) for three times. Then the cells were incubated with 2 ml HBSS buffer containing different concentrations of formononetin (final concentrations of 2.5 μM or 10 μM) at 37°C. 200 μL of incubation medium was sampled from each well at various times (0.5, 1.0, 1.5, and 2.0 h). Meanwhile, 200 μL of dosing solution was added immediately. The extracted samples were mixed with 100 μL ice-cold acetonitrile and vortexed for 1 min. The supernatant after centrifugation (15,000 g; 15 min) was injected into HPLC for analysis. After the last samples were taken, cells were collected into 400 μL ice-cold MeOH:H2O (1:1, v/v) and processed to measure the intracellular amount of formononetin sulfate. The excretion rate (ER) of intracellular sulfate was calculated exactly as described in our publications (Liu et al., 2018). The apparent efflux clearance (CLef,app) was derived as the excretion rate divided by the intracellular concentration of sulfate (Ci). Ci was determined by dividing intracellular amount of sulfate at 2 h by intracellular volume. The intracellular volume of HEK293 cells was measured using sulfanilamide as described ([Zhou et al., 2015]). […] Further, the fraction of dose metabolized (fmet), an indicator of the extent of drug sulfonation, was calculated according to Eq. 2. fmet=excreted sulfate+intracellular sulfate/total dosed aglycone (2) The cells were collected and lysed in RIPA Lysis Buffer (Beyotime, Shanghai) in advance. After quantified using BCA protein assay kit (Thermo Scientific, Waltham, Massachusetts), the cells samples or individual human intestine S9 fractions were analyzed by sodium dodecyl sulfate polyacrylamide gel electrophoresis (10% acrylamide gels) and transferred to polyvinylidene fluoride membranes ([…], Millipore, Bedford, MA). […] And then the protein bands were scanned in grayscale and subjected to semiquantitative analysis using Quantity One software.

The target in series [2] is T2, HEK-SULT1A3 cell lysate (Homo sapiens, UniProt P0DMM9).
T2 construct: expressed in transfected cells; cell lysate used
In words: Effect of chemical inhibitors on formononetin sulfonation in HEK-SULT1A3 cell lysate. In kind it is in vitro ADME. The conditions noted are these: inhibitor 5–20 μM, formononetin 2.5 and 10 μM, p > 0.05.

For series [3], the target named is T1, MRP4. The series can be described thus: Effect of MK-571 on formononetin sulfate excretion in HEK-SULT1A3 cells. In kind it is cell-based. As for the experimental part: The sulfate excretion experiments were conducted using HEK-SULT1A3 cells model. In brief, HEK-SULT1A3 cells were washed with Hank's Balanced Salt Solution (HBSS) buffer (37°C, pH = 7.2) for three times. Then the cells were incubated with 2 ml HBSS buffer containing different concentrations of formononetin (final concentrations of 2.5 μM or 10 μM) at 37°C. 200 μL of incubation medium was sampled from each well at various times (0.5, 1.0, 1.5, and 2.0 h). Meanwhile, 200 μL of dosing solution was added immediately. The extracted samples were mixed with 100 μL ice-cold acetonitrile and vortexed for 1 min. The supernatant after centrifugation (15,000 g; 15 min) was injected into HPLC for analysis. After the last samples were taken, cells were collected into 400 μL ice-cold MeOH:H2O (1:1, v/v) and processed to measure the intracellular amount of formononetin sulfate. The excretion rate (ER) of intracellular sulfate was calculated exactly as described in our publications (Liu et al., 2018). The apparent efflux clearance (CLef,app) was derived as the excretion rate divided by the intracellular concentration of sulfate (Ci). Ci was determined by dividing intracellular amount of sulfate at 2 h by intracellular volume. The intracellular volume of HEK293 cells was measured using sulfanilamide as described ([Zhou et al., 2015]).

Series [4] concerns the target T2, HEK-SULT1A3 cell lysate. The series can be described thus: Formononetin sulfonation enzyme kinetics in HEK-SULT1A3 cell lysate. The conditions noted are these: Michaelis-Menten, mean ± SD (n = 3). In kind it is in vitro ADME. As for the experimental part:
Enzyme kinetic of formononetin incubated with recombinant human SULT1A3 enzyme (rSULT1A3) was evaluated. The reaction was activated after the coenzyme PAPS (which provides sulfonate group to the substrates) was added. The incubation reaction was conducted in 200 μL potassium phosphate buffer (50 mM, pH 7.4) at 37°C, containing SULT1A3 enzyme (0.1 mg/ml), formononetin (0.16–40 μM), and PAPS (a final concentration of 0.10 mM). After incubation for 120 min, the reaction was terminated by adding 100 μL ice-cold acetonitrile. Then the samples were vortexed and centrifuged at 15,000 g for 15 min. The supernatant was analyzed by HPLC for sulfate quantification. All incubations were performed in triplicate. Preliminary experiments were performed to ensure that the rates of sulfation were determined under linear conditions with respect to incubation time and protein concentration.
The sulfonation rates of formononetin at different concentrations were determined according to the sulfonation assay protocol. […] The intrinsic clearance (CLint) was calculated by Vmax/Km.
Quantification of formononetin sulfate was performed using Agilent 1,260 Infinity II HPLC system with a ZORBAX SB-C18 column (4.6 × 250 mm, 5 μm; Agilent). […] The samples were analyzed using a gradient of ammonium acetate (2.5 mM) in water (mobile phase A) vs. acetonitrile (mobile phase B) at a flow rate of 1.0 ml/min. […]

Details of series [5]: method as in Singh and Wahajuddin, 2011. The conditions noted are these: ref Singh and Wahajuddin, 2011; cited from earlier work.
[6] abbreviates: MK-571 5–20 μM, formononetin 2.5 μM, p < 0.001.
The mark [7] stands for this setting: MK-571 5–20 μM, formononetin 10 μM, p < 0.001.

Each structure is given as a SMILES string. Structures can show the parent of a compound that is named as a salt.

T2 sequence (P0DMM9 whole entry): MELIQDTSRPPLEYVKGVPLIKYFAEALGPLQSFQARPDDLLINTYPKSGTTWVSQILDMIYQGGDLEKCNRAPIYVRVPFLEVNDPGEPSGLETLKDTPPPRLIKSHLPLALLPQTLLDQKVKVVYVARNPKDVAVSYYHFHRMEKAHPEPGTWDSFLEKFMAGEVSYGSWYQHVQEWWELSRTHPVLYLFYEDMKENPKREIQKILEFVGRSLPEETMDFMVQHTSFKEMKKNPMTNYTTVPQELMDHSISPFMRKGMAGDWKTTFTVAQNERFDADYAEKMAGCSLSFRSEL

Turning to `COc1ccc(-c2coc3cc(OS(=O)(=O)O)ccc3c2=O)cc1` [F-O-S, formononetin sulfate], at MRP4 [1] (p < 0.01), the “Decrease in CLef,app of F-O-S on MRP4 knockdown” value is above 50.6% and the “Reduction in sulfate excretion rates on MRP4 knockdown” value is given as above 32.8%. At MRP4 [1] (p < 0.05), the “Elevation in intracellular amounts of F-O-S on MRP4 knockdown” value is listed as above 127.4%.

As for `CN(C)C(=O)CCSC(SCCC(=O)O)c1cccc(/C=C/c2ccc3ccc(Cl)cc3n2)c1` (stereo not drawn) [MK-571], on HEK-SULT1A3 cell lysate [2], the “Effect of inhibitor on formononetin sulfonation (generation of F-O-S)” value was “did not alter”. Further, on MRP4 [3] (setting [6]), the “Decrease of CLef,app of F-O-S” value is reported as 85.3%–98.0% and the “Reduction in excretion of F-O-S” value is given as 79.1%–94.6%. On MRP4 [3] (setting [7]), the “Decrease of excretion rates of F-O-S” value was 79.8%–95.7%, the “Increase of intracellular level of F-O-S” value is 160.6%–188.8% and the “Reduction of CLef,app of F-O-S” value was 87.3%–97.7%. Also, the “Suppression of excretion of formononetin sulfate” value on MRP4 [3] (MK-571 at 20 μM) was above 94%.

For the compound `COc1ccc(-c2coc3cc(O)ccc3c2=O)cc1` [formononetin, Formononetin], the “Vmax of formononetin sulfonation” value on HEK-SULT1A3 cell lysate [4] is on record as 13.94 ± 0.83 pmol/min/mg. Moreover, the “Bioavailability of unchanged formononetin” value in series [5] is on record as “approximately 3%”.
